Results published in PubChem BioAssay AID2060904 (Molecular Pharmacology Branch, DTP, NCI, 2025).

System: 349418-098-R-PDC complex spheroid viability
Assay: Anticancer human tumor 349418-098-R-PDC patient-derived lung adenocarcinoma cell line growth inhibition [RAS]
Conditions: for IC50: curve of first compound; for viability, T/C: stronger effect = lower value
Outline: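 Multi-cell-type spheroids: tumor cells plus HUVEC endothelial cells and mesenchymal stem cells. RAS-pathway inhibitors were combined with targeted agents, each dosed in half-log steps down from clinical Cmax, or from 10 microM when Cmax was unknown.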

[1] = second compound 0.00316 µM, first compound 0.0316 µM
[2] = second compound 0.00316 µM, first compound 0.1 µM
[3] = second compound 0.00316 µM, first compound 0.316 µM
[4] = second compound 0.00316 µM, first compound 1 µM
[5] = second compound 0.00316 µM, first compound 3.16 µM
[6] = second compound 0.00316 µM, first compound 10 µM
[7] = second compound 0.01 µM, first compound 0.0316 µM
[8] = second compound 0.01 µM, first compound 0.1 µM
[9] = second compound 0.01 µM, first compound 0.316 µM
[10] = second compound 0.01 µM, first compound 1 µM
[11] = second compound 0.01 µM, first compound 3.16 µM
[12] = second compound 0.01 µM, first compound 10 µM
[13] = second compound 0.0316 µM, first compound 0.0316 µM
[14] = second compound 0.0316 µM, first compound 0.1 µM
[15] = second compound 0.0316 µM, first compound 0.316 µM
[16] = second compound 0.0316 µM, first compound 1 µM
[17] = second compound 0.0316 µM, first compound 3.16 µM
[18] = second compound 0.0316 µM, first compound 10 µM
[19] = second compound 0.1 µM, first compound 0.0316 µM
[20] = second compound 0.1 µM, first compound 0.1 µM
[21] = second compound 0.1 µM, first compound 0.316 µM
[22] = second compound 0.1 µM, first compound 1 µM
[23] = second compound 0.1 µM, first compound 3.16 µM
[24] = second compound 0.1 µM, first compound 10 µM
[25] = second compound 0.316 µM, first compound 0.0316 µM
[26] = second compound 0.316 µM, first compound 0.1 µM
[27] = second compound 0.316 µM, first compound 0.316 µM
[28] = second compound 0.316 µM, first compound 1 µM
[29] = second compound 0.316 µM, first compound 3.16 µM
[30] = second compound 0.316 µM, first compound 10 µM
[31] = second compound 1 µM, first compound 0.0316 µM
[32] = second compound 1 µM, first compound 0.1 µM
[33] = second compound 1 µM, first compound 0.316 µM
[34] = second compound 1 µM, first compound 1 µM
[35] = second compound 1 µM, first compound 3.16 µM
[36] = second compound 1 µM, first compound 10 µM
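Also: spheroids exposed to compound for seven days before viability readout.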

Compound CC1(O)CCCC1n1c(=O)c(C(F)F)cc2cnc(NC3CCN(S(C)(=O)=O)CC3)nc21 (stereo unspecified) + C=CC(=O)N1CCN(c2nc(OCC3CCCN3C)nc3c(F)c(-c4nc(N)cc(C)c4C(F)(F)F)c(Cl)cc23)C(C)C1 has an IC50 (second compound 0.00316 µM) of 76.8 nM, an IC50 (second compound 0.01 µM) of 102 nM and an IC50 (second compound 0.0316 µM) of 84.7 nM. It also gave an IC50 (second compound 0.1 µM) of 62.2 nM, an IC50 (second compound 0.316 µM) of 38.2 nM and an IC50 (second compound 1 µM) of 53.8 nM. The viability, T/C [1] was 75.1%, the viability, T/C [2] was 43.2% and the viability, T/C [3] was 22.5%. The viability, T/C [4] was 17%, the viability, T/C [5] was 21.8% and the viability, T/C [6] was 4.51%. For the same compound, the viability, T/C [7] was 59.5%, the viability, T/C [8] was 52.6% and the viability, T/C [9] was 33.2%. For the same compound, the viability, T/C [10] was 17.8%, the viability, T/C [11] was 15.8% and the viability, T/C [12] was 3.59%. For the same compound, the viability, T/C [13] was 74.9%, the viability, T/C [14] was 44.4% and the viability, T/C [15] was 27.2%. For the same compound, the viability, T/C [16] was 19.8%, the viability, T/C [17] was 24.7% and the viability, T/C [18] was 3.03%. For the same compound, the viability, T/C [19] was 64.8%, the viability, T/C [20] was 41% and the viability, T/C [21] was 18.2%. It also gave a viability, T/C [22] of 25.8%, a viability, T/C [23] of 24.2% and a viability, T/C [24] of 2.89%. The viability, T/C [25] was 52.6%, the viability, T/C [26] was 43.1% and the viability, T/C [27] was 20.6%. The viability, T/C [28] was 24.3%, the viability, T/C [29] was 18.1% and the viability, T/C [30] was 3.81%. It also gave a viability, T/C [31] of 60.8%, a viability, T/C [32] of 36% and a viability, T/C [33] of 26.4%. It also gave a viability, T/C [34] of 25.4%, a viability, T/C [35] of 22.6% and a viability, T/C [36] of 4.16%.
In the case of CCC(CC)c1cc(NC2CCC(N)C2)n2nccc2n1 (stereo unspecified) + C=CC(=O)N1CCN(c2nc(OCC3CCCN3C)nc3c(F)c(-c4nc(N)cc(C)c4C(F)(F)F)c(Cl)cc23)C(C)C1, the IC50 (second compound 0.00316 µM) is reported as 720 nM, the IC50 (second compound 0.01 µM) is reported as 996 nM and the IC50 (second compound 0.0316 µM) is reported as 797 nM. For the same compound, the IC50 (second compound 0.1 µM) was 884 nM, the IC50 (second compound 0.316 µM) was 588 nM and the IC50 (second compound 1 µM) was 1100 nM. It also gave a viability, T/C [1] of 114%, a viability, T/C [2] of 108% and a viability, T/C [3] of 76.1%. The viability, T/C [4] was 43.2%, the viability, T/C [5] was 3.31% and the viability, T/C [6] was 2.99%. For the same compound, the viability, T/C [7] was 110%, the viability, T/C [8] was 86.8% and the viability, T/C [9] was 84.8%. The viability, T/C [10] was 53.8%, the viability, T/C [11] was 3.18% and the viability, T/C [12] was 2.92%. For the same compound, the viability, T/C [13] was 85.3%, the viability, T/C [14] was 114% and the viability, T/C [15] was 88%. For the same compound, the viability, T/C [16] was 40.8%, the viability, T/C [17] was 2.8% and the viability, T/C [18] was 2.99%. The viability, T/C [19] was 73%, the viability, T/C [20] was 80.5% and the viability, T/C [21] was 102%. The viability, T/C [22] was 45.8%, the viability, T/C [23] was 3.01% and the viability, T/C [24] was 3.2%. The viability, T/C [25] was 111%, the viability, T/C [26] was 88.1% and the viability, T/C [27] was 75.7%. The viability, T/C [28] was 31.7%, the viability, T/C [29] was 3.42% and the viability, T/C [30] was 2.54%. For the same compound, the viability, T/C [31] was 78.8%, the viability, T/C [32] was 71.9% and the viability, T/C [33] was 85.4%. For the same compound, the viability, T/C [34] was 54.3%, the viability, T/C [35] was 3.58% and the viability, T/C [36] was 4.86%.
With CCN1CCN(Cc2ccc(Nc3ncc(F)c(-c4cc(F)c5nc(C)n(C(C)C)c5c4)n3)nc2)CC1 + C=CC(=O)N1CCN(c2nc(OCC3CCCN3C)nc3c(F)c(-c4nc(N)cc(C)c4C(F)(F)F)c(Cl)cc23)C(C)C1 the IC50 (second compound 0.00316 µM) was 17.3 nM, the IC50 (second compound 0.01 µM) was 23.4 nM and the IC50 (second compound 0.0316 µM) was 30.2 nM. The IC50 (second compound 0.1 µM) was 11.3 nM, the IC50 (second compound 0.316 µM) was 20.8 nM and the IC50 (second compound 1 µM) was 14.1 nM. The viability, T/C (second compound 0.00316 µM, first compound 0.00316 µM) was 77.6%, the viability, T/C (second compound 0.00316 µM, first compound 0.01 µM) was 62.2% and the viability, T/C [1] was 35.9%. The viability, T/C [2] was 25.7%, the viability, T/C [3] was 20.9% and the viability, T/C [4] was 15.7%. For the same compound, the viability, T/C (second compound 0.01 µM, first compound 0.00316 µM) was 89.4%, the viability, T/C (second compound 0.01 µM, first compound 0.01 µM) was 71.3% and the viability, T/C [7] was 43.4%. The viability, T/C [8] was 22.1%, the viability, T/C [9] was 22.5% and the viability, T/C [10] was 17%. It also gave a viability, T/C (second compound 0.0316 µM, first compound 0.00316 µM) of 78.8%, a viability, T/C (second compound 0.0316 µM, first compound 0.01 µM) of 96.2% and a viability, T/C [13] of 48.4%. It also gave a viability, T/C [14] of 22.5%, a viability, T/C [15] of 21.6% and a viability, T/C [16] of 17.5%. The viability, T/C (second compound 0.1 µM, first compound 0.00316 µM) was 72.8%, the viability, T/C (second compound 0.1 µM, first compound 0.01 µM) was 51.2% and the viability, T/C [19] was 35.6%. It also gave a viability, T/C [20] of 20.6%, a viability, T/C [21] of 20.8% and a viability, T/C [22] of 17.4%. It also gave a viability, T/C (second compound 0.316 µM, first compound 0.00316 µM) of 82.8%, a viability, T/C (second compound 0.316 µM, first compound 0.01 µM) of 74% and a viability, T/C [25] of 35.2%. It also gave a viability, T/C [26] of 34.3%, a viability, T/C [27] of 25.2% and a viability, T/C [28] of 18.1%. The viability, T/C (second compound 1 µM, first compound 0.00316 µM) was 61.5%, the viability, T/C (second compound 1 µM, first compound 0.01 µM) was 49.1% and the viability, T/C [31] was 46.7%. It also gave a viability, T/C [32] of 29%, a viability, T/C [33] of 22.1% and a viability, T/C [34] of 19.1%.
